Data taken from PubChem BioAssay (NCI).
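Following 48 hours of exposure in 96-well plates, responses at five concentrations were used to interpolate endpoints linearly. GI50 is the concentration that inhibits growth by half. TGI marks complete inhibition of growth.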

Tests used:
Assay in all cases: DTP human tumour cell line panel, 48 h
[1] = tested on: HL-60(TB) leukemia
[2] = tested on: IGROV1 ovarian
[3] = tested on: K-562 leukemia
[4] = tested on: NCI-H226 lung
[5] = tested on: NCI-H23 lung
[6] = tested on: SK-MEL-5 melanoma
[7] = tested on: SK-OV-3 ovarian
[8] = tested on: SN12C renal
[9] = tested on: SR leukemia
[10] = tested on: UO-31 renal

O=C(Nc1cccc(C(F)(F)F)c1)Nc1cc(S(=O)(=O)NC2CC2)ccc1-c1ccsc1
GI50 [1]: 3.01 µM | TGI [1]: 8.03 µM | GI50 [2]: 7.18 µM | TGI [2]: 25.4 µM | GI50 [3]: 3.42 µM | TGI [3]: 13.5 µM | GI50 [4]: 4.82 µM | TGI [4]: 19 µM | GI50 [5]: 4.03 µM | TGI [5]: 16.6 µM | GI50 [6]: 2.31 µM | TGI [6]: 5.65 µM | GI50 [7]: 4.39 µM | TGI [7]: 17 µM | GI50 [8]: 4.33 µM | TGI [8]: 18.3 µM | GI50 [9]: 2.72 µM | TGI [9]: 8.92 µM | GI50 [10]: 3.3 µM | TGI [10]: 13.3 µM
